“Also recorded” adds a separate entry of the source.
B1: human NLR family CARD domain containing 4 (NLRC4) (receptor)
chain: MNFIKDNSRALIQRMGMTVIKQITDDLFVWNVLNREEVNIICCEKVEQDAARGIIHMILKKGSESCNLFLKSLKEWNYPLFQDLNGQSLFHQTSEGDLDDLAQDLKDLYHTPSFLNFYPLGEDIDIIFNLKSTFTEPVLWRKDQHHHRVEQLTLNGLLQALQSPCIIEGESGKGKSTLLQRIAMLWGSGKCKALTKFKFVFFLRLSRAQGGLFETLCDQLLDIPGTIRKQTFMAMLLKLRQRVLFLLDGYNEFKPQNCPEIEALIKENHRFKNMVIVTTTTECLRHIRQFGALTAEVGDMTEDSAQALIREVLIKELAEGLLLQIQKSRCLRNLMKTPLFVVITCAIQMGESEFHSHTQTTLFHTFYDLLIQKNKHKHKGVAASDFIRSLDHCGDLALEGVFSHKFDFELQDVSSVNEDVLLTTGLLCKYTAQRFKPKYKFFHKSFQEYTAGRRLSSLLTSHEPEEVTKGNGYLQKMVSISDITSTYSSLLRYTCGSSVEATRAVMKHLAAVYQHGCLLGLSIAKRPLWRQESLQSVKNTTEQEILKAININSFVECGIHLYQESTSKSALSQEFEAFFQGKSLYINSGNIPDYLFDFFEHLPNCASALDFIKLDFYGGAMASWEKAAEDTGGIHMEEAPETYIPSRAVSLFFNWKQEFRTLEVTLRDFSKLNKQDIRYLGKIFSSATSLRLQIKRCAGVAGSLSLVLSTCKNIYSLMVEASPLTIEDERHITSVTNLKTLSIHDLQNQRLPGGLTDSLGNLKNLTKLIMDNIKMNEEDAIKLAEGLKNLKKMCLFHLTHLSDIGEGMDYIVKSLSSEPCDLEEIQLVSCCLSANAVKILAQNLHNLVKLSILDLSENYLEKDGNEALHELIDRMNVLEQLTALMLPWGCDVQGSLSSLLKHLEEVPQLVKLGLKNWRLTDTEIRILGAFFGKNPLKNFQQLNLAGNRVSSDGWLAFMGVFENLKQLVFFDFSTKEFLPDPALVRKLSQVLSKLTFLQEARLVGWQFDDDDLSVITGAFKLVTA
notes: Endogenous protein of human RPE cells and of human donor eyes

Key:
[1] = tested on: NLRC4 phosphorylation (site S533); experiment: Alu RNA induced NLRC4 phosphorylation (S533) in BMDM pre-treated with kinase inhibitors, immunoblot; type: cell-based, mouse; conditions: BMDM pre-treated 1 hour with inhibitor at 2 μM or 5 μM, then Alu RNA transfection (100 pmol)
Description: (§1) FIG. 2. SINE RNA induced NLRC4 phosphorylation (site S533) through protein Kinase C Delta. BMDM cell pre-treated with the LRRK2 Kinase inhibitor gsk2578215a (GSK; 5-(2-Fluoro-4-pyridinyl)-2-(phenylmethoxy)-N-3-pyridinyl-benzamide; CAS Number 1285515-21-0; Sigma-Aldrich, St. Louis, Mo., United States of America) or the PKC delta inhibitor Rottlerin (CAS Number 82-08-6; Sigma-Aldrich) at 2 μM or 5 μM, and treated with Alu RNA (SEQ ID NO: 86) transfection or transfection reagent alone (Mock). NLRC4 phosphorylation (P-NLRC4) and supernatant caspase-1 activation were detected by SDS-PAGE. […] PKC delta inhibitor, Rottlerin blocked Alu RNA-induced NLRC4 phosphorylation and caspase-1 activation. The p-NLRC4 and caspase-1 (p20) bands were indicated with black arrows.
(§2) Previous studies have shown that NLRC4 inflammasome activation in response to Salmonella exposure requires two steps for its activation, phosphorylation on Ser533 residue of NLRC4 and NAIP mediated oligomerization of NLRC4. […] Moreover, treatment with SINE RNAs induced caspase-1 p20 cleavage, indicative of inflammasome activation (FIG. 2). For the subsequent experiments in this study, we used Alu RNA (SEQ ID NO: 86) as the stimulus to activate the NLRC4 inflammasome. To date, two kinases are reported to phosphorylate NLRC4 at S533: protein kinase C delta (PKCδ) and leucine rich repeat-containing kinase-2 (LRRK2). […]

caspase-1 = experiment: Alu RNA induced caspase-1 activation (p20 in supernatant) in BMDM pre-treated with kinase inhibitors; type: cell-based, mouse; conditions: BMDM pre-treated 1 hour with inhibitor at 2 μM or 5 μM, then Alu RNA transfection (100 pmol)
Description: as §1, §2

[2] = biological target: the molecule itself; experiment: homo-oligomerization, Tris-glycine native PAGE, Alu RNA-transfected human RPE cells
Description: FIGS. 24A and 24B. Alu RNA (SEQ ID NO: 86) induced NLRC4 activation in human RPE cells. To test whether Alu RNA (SEQ ID NO: 86) induces NLRC4 activation in human RPE, we transfected human RPE with Alu RNA (SEQ ID NO: 86 at 100 pmol). FIG. 24A. Immunofluorescence staining on NLRC4 show Alu RNA (SEQ ID NO: 86) induced cytosolic NLRC4 punctate in hRPE cells. The NLRC4 aggregates induced by Alu RNA (SEQ ID NO: 86) are indicated by white arrows. FIG. 24B. Alu RNA (SEQ ID NO: 86) induced NLRC4 (p-NLRC4) phosphorylation and oligomerization. Loading control show by Actin. NLRC4 oligomers were detected by Tris-glycine native PAGE. […] The band of NLRC4 oligomers is indicated by black arrow.

[3] = biological target: T1, human NLR family pyrin domain containing 3 (NLRP3) (human, UniProt Q96P20 1-1036); experiment: proximity ligation assay (PLA) in human RPE cells transfected with biotinylated Alu RNA
T1 construct: Endogenous protein of human RPE cells
T1 sequence (Q96P20 whole entry, the tested form may be a part): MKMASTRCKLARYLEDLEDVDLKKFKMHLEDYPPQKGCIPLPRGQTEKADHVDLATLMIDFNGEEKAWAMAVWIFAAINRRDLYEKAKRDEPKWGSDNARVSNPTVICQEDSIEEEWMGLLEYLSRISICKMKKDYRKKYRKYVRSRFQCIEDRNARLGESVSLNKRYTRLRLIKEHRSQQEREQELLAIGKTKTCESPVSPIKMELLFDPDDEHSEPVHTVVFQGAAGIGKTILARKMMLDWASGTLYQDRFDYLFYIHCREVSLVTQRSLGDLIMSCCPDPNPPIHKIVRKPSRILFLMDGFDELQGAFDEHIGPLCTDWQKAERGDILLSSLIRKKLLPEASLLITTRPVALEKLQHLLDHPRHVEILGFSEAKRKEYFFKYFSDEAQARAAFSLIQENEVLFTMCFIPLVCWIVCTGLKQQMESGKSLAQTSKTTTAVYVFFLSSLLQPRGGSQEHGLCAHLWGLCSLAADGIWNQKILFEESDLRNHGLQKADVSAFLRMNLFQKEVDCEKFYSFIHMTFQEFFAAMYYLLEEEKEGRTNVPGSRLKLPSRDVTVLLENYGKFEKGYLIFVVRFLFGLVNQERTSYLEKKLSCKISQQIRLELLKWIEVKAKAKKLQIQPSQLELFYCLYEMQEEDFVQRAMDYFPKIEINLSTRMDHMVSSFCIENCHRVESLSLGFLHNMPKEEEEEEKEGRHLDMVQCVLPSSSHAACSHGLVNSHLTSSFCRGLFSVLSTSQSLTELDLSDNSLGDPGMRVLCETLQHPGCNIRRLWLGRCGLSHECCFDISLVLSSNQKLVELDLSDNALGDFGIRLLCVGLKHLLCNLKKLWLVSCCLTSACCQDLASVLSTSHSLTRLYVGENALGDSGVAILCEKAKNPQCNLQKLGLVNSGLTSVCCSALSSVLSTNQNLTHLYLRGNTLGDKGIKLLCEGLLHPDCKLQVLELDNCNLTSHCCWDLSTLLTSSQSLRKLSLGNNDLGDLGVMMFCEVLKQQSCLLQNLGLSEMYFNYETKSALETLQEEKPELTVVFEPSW
Description: FIG. 37. Alu RNA (SEQ ID NO: 86) induces the assembly of NLRC4 and NLRP3 complex. Human RPE cells were transfected with biotinylated Alu RNA (SEQ ID NO: 86 at 100 pmol) by LIPOFECTAMINE™ 3000 brand transfection reagent (Lipo; ThermoFisher Scientific). The assembly of NLRC4 and NLRP3 complex was evaluated by Proximity Ligation Assay (PLA). […] The signal of NLRC4-NLRP3 complexes is indicated by the white arrow.
Human RPE cells were treated with biotinylated Alu RNA (SEQ ID NO: 86 at 100 pmol). The assembly of NLRC4 and NLRP3 complex was evaluated by Proximity Ligation Assay (PLA).

Molecule	Alu RNA induced phosphorylation of NLRC4 [1]	Alu RNA induced caspase-1 activation (caspase-1)	binding result [2]	binding result [3]
CC(=O)c1c(O)c(C)c(O)c(Cc2c(O)c3c(c(C(=O)/C=C/c4ccccc4)c2O)OC(C)(C)C=C3)c1O [Rottlerin]	blocked; also recorded: inhibited	blocked; also recorded: inhibited		
B1			binds	binds
